Data reported in patent US20050137220A1 (Pharmacia Corporation, priority 2003, published 2005).
Counter-ions that a name gives are not always drawn. Like-named read-outs stand apart in the source and are kept apart here.

Experiments:
[1] = tested on: p38; settings: murine model of endotoxin-induced shock; cited from earlier work
[2] = tested on: p38; settings: mouse collagen-induced arthritis; cited from earlier work
[3] = tested on: p38; settings: rat adjuvant arthritis; cited from earlier work
[4] = biological target: MK-2 (Homo sapiens, UniProt P49137); assay: Determination of MK-2 IC50 (phosphorylation of HSP-peptide, anion exchange resin capture assay); assay type: biochemical; settings: additional values are replicate IC50 experiments; mixture of stereoisomers implied unless otherwise noted; read-out: MK-2 Avg. IC50
[5] = tested on: U937 cells; assay: U937 Cell TNFα Release Assay; assay type: cell-based, human; settings: Homo sapiens, TNFα by ELISA, mixture of stereoisomers implied unless otherwise noted, read-out: TNF Release Assay Avg. IC50
[6] = U-937, 4 h, LPS-stimulated differentiated U937 cells
[7] = U-937, LPS-stimulated differentiated U937 cells

MK-2, sequence (P49137 whole entry, species assumed): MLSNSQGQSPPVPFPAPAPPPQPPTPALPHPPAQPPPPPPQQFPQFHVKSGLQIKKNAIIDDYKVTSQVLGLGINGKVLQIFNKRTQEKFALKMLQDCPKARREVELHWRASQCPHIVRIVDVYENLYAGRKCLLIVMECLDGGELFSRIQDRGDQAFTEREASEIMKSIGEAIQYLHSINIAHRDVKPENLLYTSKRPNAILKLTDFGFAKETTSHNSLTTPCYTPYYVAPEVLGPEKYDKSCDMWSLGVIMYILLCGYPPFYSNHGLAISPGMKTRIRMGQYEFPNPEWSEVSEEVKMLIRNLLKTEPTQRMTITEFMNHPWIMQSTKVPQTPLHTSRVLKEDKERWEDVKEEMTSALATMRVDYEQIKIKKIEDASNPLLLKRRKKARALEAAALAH

IC50 [4] [µM] | IC50 [5, 7] [µM] | Compound | mortality [1] | development of arthritis [2] | development of arthritis [3] | IC50 [5, 6] [µM]
– | – | C[S+]([O-])c1ccc(-c2nc(-c3ccncc3)c(-c3ccc(F)cc3)[nH]2)cc1 (stereo not drawn) [SB203580] | reduce mortality | inhibit the development | inhibit the development | –
108 | 7.33 | COc1ccc2[nH]c3c(c2c1)CCC(C)/C3=N/N (stereo not drawn) [Example 134, 6-methoxy-2-methyl-2,3,4,9-tetrahydro-1H-carbazol-1-one hydrazone] | – | – | – | –
15 | 45.7 | COc1ccc2[nH]c3c(c2c1)CCNC3=O [Example 69, 6-methoxy-2,3,4,9-tetrahydro-1H-beta-carbolin-1-one] | – | – | – | –
8 | – | CCOC(=O)COc1ccc2[nH]c3c(c2c1)CCNC3C(=O)O (stereo not drawn) [Example 53, 6-(2-ethoxy-2-oxoethoxy)-2,3,4,9-tetrahydro-1H-beta-carboline-1-carboxylic acid trifluoroacetate hydrate] | – | – | – | > 100
16.5 | 13.9 | COc1ccc2[nH]c3c(c2c1)CCC/C3=N\O (single isomer, unassigned) [Example 75, 6-methoxy-2,3,4,9-tetrahydro-1H-carbazol-1-one oxime] | – | – | – | –

Compound | IC50 [4] [µM] | IC50 [5, 7] [µM] | mortality [1] | development of arthritis [2] | development of arthritis [3] | IC50 [5, 6] [µM]
O=C(O)C1NCCc2c1[nH]c1ccc(OCCCCCl)cc21 (stereo not drawn) [Example 79, 6-(4-chlorobutoxy)-2,3,4,9-tetrahydro-1H-beta-carboline-1-carboxylic acid hydrochloride] | 17.4 | – | – | – | – | > 100
COc1ccc2[nH]c3c(c2c1)CC(CCCN)NC3=O (stereo not drawn) [Example 38, 3-(3-aminopropyl)-6-methoxy-2,3,4,9-tetrahydro-1H-beta-carbolin-1-one trifluoroacetate] | 5.5 | 36.7 | – | – | – | –
